Values after ≈ are worked out from the molar mass of the structure shown.
Tests used:
Experiment in all cases: ≥ marks a high value that may be exact or a test limit, other limits are often not marked, values filed in µg/mL are converted to µM
[1] = system: Staphylococcus aureus ATCC BAA-1556
[2] = system: Candida albicans ATCC 10231
[3] = system: Pseudomonas aeruginosa ATCC 15442
[4] = system: Staphylococcus aureus ATCC 29213
Bacillus subtilis = system: Bacillus subtilis
Escherichia coli = system: Escherichia coli
Serratia marcescens = system: Serratia marcescens
Pseudomonas aeruginosa = system: Pseudomonas aeruginosa
Candida albicans = system: Candida albicans
Saccharomyces cerevisiae = system: Saccharomyces cerevisiae
Micrococcus luteus = system: Micrococcus luteus
[5] = system: Staphylococcus epidermidis
Salmonella typhimurium = system: Salmonella typhimurium
Shigella dysenteriae = system: Shigella dysenteriae
Proteus mirabilis = system: Proteus mirabilis
[6] = system: Candida albicans NCYC 1467
[7] = system: Escherichia coli NCTC 10418
[8] = system: Staphylococcus aureus NCTC 10788
[9] = system: Pseudomonas aeruginosa ATCC 27853
[10] = system: Staphylococcus epidermidis ATCC 12228
[11] = system: Salmonella enterica subsp. enterica serovar Typhimurium ATCC 14028
[12] = system: Escherichia coli ATCC 25922
[13] = system: Salmonella typhimurium ATCC 7731
Escherichia coli UB1005 = system: Escherichia coli UB1005
[14] = system: Bacillus subtilis CMCC 63501

`CC(C)C[C@H](NC(=O)[C@H](CC(C)C)NC(=O)[C@H](CC(C)C)NC(=O)[C@H](CC(C)C)NC(=O)[C@H](CC(C)C)NC(=O)[C@H](CC(C)C)NC(=O)[C@H](CCCCN)NC(=O)[C@H](CC(C)C)NC(=O)[C@@H](N)CC(C)C)C(N)=O` [LLKLLLLLL] was tested, and the MIC [1] was no less than 100 µM.
`CC[C@H](C)[C@H](NC(=O)[C@H](Cc1c[nH]c2ccccc12)NC(=O)[C@H](CCCN=C(N)N)NC(=O)[C@H](CCCN=C(N)N)NC(=O)[C@H](CC(C)C)NC(=O)[C@@H](N)CCCCN)C(=O)N[C@@H](CCCN=C(N)N)C(=O)N[C@@H](Cc1c[nH]c2ccccc12)C(=O)N[C@@H](CC(C)C)C(N)=O` [KLRRWIRWL] was tested, and the MIC [1] was 25 µM (≈ 33.1 µg/mL).
Compound `CC(C)C[C@H](NC(=O)[C@H](Cc1c[nH]c2ccccc12)NC(=O)[C@H](Cc1c[nH]c2ccccc12)NC(=O)[C@H](CC(C)C)NC(=O)[C@H](Cc1c[nH]c2ccccc12)NC(=O)[C@@H](N)Cc1c[nH]c2ccccc12)C(=O)N[C@@H](CCCN=C(N)N)C(N)=O` [WWLWWLR] has an MIC [1] of 12.5 µM (≈ 14.3 µg/mL).
In the case of `CC[C@H](C)[C@H](NC(=O)[C@H](C)NC(=O)[C@@H](N)C(C)C)C(=O)N[C@@H](C)C(=O)N[C@@H](CC(C)C)C(=O)N[C@@H](CCCCN)C(=O)N[C@@H](C)C(=O)N[C@@H](C)C(=O)N[C@@H](Cc1cnc[nH]1)C(=O)N[C@@H](Cc1ccc(O)cc1)C(=O)N[C@@H](Cc1cnc[nH]1)C(=O)N[C@H](C(=O)N[C@@H](C)C(=O)N[C@@H](CCCCN)C(=O)N[C@@H](CCC(=O)O)C(=O)O)[C@@H](C)O` [VAIALKAAHYHTAKE], the MIC [2] is reported as 78.9 µM (≈ 128 µg/mL), the MIC [3] is reported as no less than 78.9 µM and the MIC [4] is reported as 0.154 µM (≈ 0.25 µg/mL).
For `CC[C@H](C)[C@H](NC(=O)CN)C(=O)N[C@@H](CC(C)C)C(=O)N[C@@H](CC(=O)O)C(=O)N[C@H](C(=O)N[C@@H](CC(C)C)C(=O)N[C@@H](CCCCN)C(=O)N[C@@H](CCC(N)=O)C(=O)N[C@@H](Cc1ccccc1)C(=O)N[C@@H](C)C(=O)N[C@@H](CCCCN)C(=O)NCC(=O)N[C@H](C(=O)NCC(=O)N[C@@H](CCCCN)C(=O)N[C@@H](CC(=O)O)C(=O)N[C@@H](CC(C)C)C(=O)N[C@H](C(=O)N[C@@H](CCCCN)C(=O)NCC(=O)N[C@@H](C)C(=O)N[C@@H](C)C(=O)N[C@@H](CCC(N)=O)C(=O)NCC(=O)N[C@H](C(=O)N[C@@H](CC(C)C)C(=O)N[C@@H](CO)C(=O)O)C(C)C)C(C)C)C(C)C)[C@@H](C)O` [GILDTLKQFAKGVGKDLVKGAAQGVLS], the MIC (Bacillus subtilis) was 18.4 µM (≈ 50 µg/mL), the MIC (Escherichia coli) was 9.21 µM (≈ 25 µg/mL) and the MIC (Serratia marcescens) was no less than 36.8 µM. The MIC (Pseudomonas aeruginosa) was 9.21 µM (≈ 25 µg/mL), the MIC (Candida albicans) was greater than 36.8 µM and the MIC (Saccharomyces cerevisiae) was 9.21 µM (≈ 25 µg/mL). It also gave an MIC (Micrococcus luteus) of 0.921 µM (≈ 2.5 µg/mL), an MIC [5] of 18.4 µM (≈ 50 µg/mL) and an MIC (Salmonella typhimurium) of 27.6 µM (≈ 75 µg/mL). It also gave an MIC (Shigella dysenteriae) of 9.21 µM (≈ 25 µg/mL) and an MIC (Proteus mirabilis) of 18.4 µM (≈ 50 µg/mL).
With `CC[C@H](C)[C@H](NC(=O)CNC(=O)CNC(=O)[C@H](C)NC(=O)[C@@H](NC(=O)[C@H](CCCCN)NC(=O)[C@@H]1CCCN1C(=O)[C@@H](NC(=O)[C@H](CCSC)NC(=O)[C@H](CO)NC(=O)[C@H](Cc1ccccc1)NC(=O)[C@@H](N)Cc1ccccc1)[C@@H](C)CC)[C@@H](C)CC)C(=O)N[C@@H](C)C(=O)N[C@@H](CO)C(=O)N[C@@H](CC(C)C)C(=O)N[C@H](C(=O)N[C@@H](CCCCN)C(=O)N[C@@H](CC(N)=O)C(=O)N[C@@H](CC(C)C)C(N)=O)C(C)C` [FFSMIPKIAGGIASLVKNL] the MIC [6] was 3.99 µM (≈ 8 µg/mL), the MIC [7] was no less than 63.8 µM and the MIC [8] was 3.99 µM (≈ 8 µg/mL).
`CC[C@H](C)[C@H](NC(=O)CNC(=O)[C@H](C)NC(=O)[C@H](C)NC(=O)[C@@H](NC(=O)[C@@H](NC(=O)[C@H](CC(N)=O)NC(=O)[C@@H](NC(=O)[C@H](C)NC(=O)[C@@H](NC(=O)[C@@H]1CCCN1C(=O)[C@@H](NC(=O)[C@H](CC(C)C)NC(=O)[C@@H]1CCCN1C(=O)[C@H](Cc1c[nH]c2ccccc12)NC(=O)[C@H](Cc1ccccc1)NC(=O)[C@H](CCCN=C(N)N)NC(=O)[C@@H](N)CCCCN)C(C)C)C(C)C)[C@@H](C)CC)[C@@H](C)O)C(C)C)C(=O)N[C@@H](CC(N)=O)C(N)=O` [KRFWPLVPVAINTVAAGIN] showed an MIC [9] greater than 128 µM, an MIC [10] greater than 128 µM and an MIC [11] greater than 128 µM. The MIC [4] was greater than 128 µM, the MIC [12] was greater than 128 µM and the MIC [13] was no less than 128 µM. For the same compound, the MIC (Escherichia coli UB1005) was no less than 128 µM and the MIC [14] was no less than 128 µM.
